The target in this assay is T1, CK1α (Homo sapiens, UniProt P48729).
T1 construct: HEK293 clonal lines with CRISPR KI HiBiT tag on CSNK1A1
T1 sequence (P48729 whole entry): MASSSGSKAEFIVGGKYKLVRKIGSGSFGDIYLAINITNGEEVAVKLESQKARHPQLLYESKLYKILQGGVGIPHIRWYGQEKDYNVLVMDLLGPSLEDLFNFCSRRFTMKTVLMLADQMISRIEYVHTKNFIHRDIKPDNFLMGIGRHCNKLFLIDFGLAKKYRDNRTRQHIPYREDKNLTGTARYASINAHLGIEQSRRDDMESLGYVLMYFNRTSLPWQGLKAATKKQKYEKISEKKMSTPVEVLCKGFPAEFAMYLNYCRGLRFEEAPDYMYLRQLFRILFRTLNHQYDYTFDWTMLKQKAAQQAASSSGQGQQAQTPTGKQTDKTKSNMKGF
T1 sequence (Q96SW2 whole entry, further chain): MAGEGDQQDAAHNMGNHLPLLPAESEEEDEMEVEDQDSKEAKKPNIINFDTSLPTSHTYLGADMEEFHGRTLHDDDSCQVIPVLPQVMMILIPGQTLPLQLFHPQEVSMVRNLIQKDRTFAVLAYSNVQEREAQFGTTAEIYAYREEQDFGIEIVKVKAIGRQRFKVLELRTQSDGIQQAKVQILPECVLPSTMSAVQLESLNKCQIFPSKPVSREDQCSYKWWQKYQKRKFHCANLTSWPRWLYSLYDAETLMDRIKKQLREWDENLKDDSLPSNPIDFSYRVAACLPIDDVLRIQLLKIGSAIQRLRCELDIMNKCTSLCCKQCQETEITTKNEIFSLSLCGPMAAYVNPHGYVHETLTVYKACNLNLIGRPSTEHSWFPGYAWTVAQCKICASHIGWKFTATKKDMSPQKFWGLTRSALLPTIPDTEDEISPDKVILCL
T1 sequence (Q16531 2-1140 partner limits assumed): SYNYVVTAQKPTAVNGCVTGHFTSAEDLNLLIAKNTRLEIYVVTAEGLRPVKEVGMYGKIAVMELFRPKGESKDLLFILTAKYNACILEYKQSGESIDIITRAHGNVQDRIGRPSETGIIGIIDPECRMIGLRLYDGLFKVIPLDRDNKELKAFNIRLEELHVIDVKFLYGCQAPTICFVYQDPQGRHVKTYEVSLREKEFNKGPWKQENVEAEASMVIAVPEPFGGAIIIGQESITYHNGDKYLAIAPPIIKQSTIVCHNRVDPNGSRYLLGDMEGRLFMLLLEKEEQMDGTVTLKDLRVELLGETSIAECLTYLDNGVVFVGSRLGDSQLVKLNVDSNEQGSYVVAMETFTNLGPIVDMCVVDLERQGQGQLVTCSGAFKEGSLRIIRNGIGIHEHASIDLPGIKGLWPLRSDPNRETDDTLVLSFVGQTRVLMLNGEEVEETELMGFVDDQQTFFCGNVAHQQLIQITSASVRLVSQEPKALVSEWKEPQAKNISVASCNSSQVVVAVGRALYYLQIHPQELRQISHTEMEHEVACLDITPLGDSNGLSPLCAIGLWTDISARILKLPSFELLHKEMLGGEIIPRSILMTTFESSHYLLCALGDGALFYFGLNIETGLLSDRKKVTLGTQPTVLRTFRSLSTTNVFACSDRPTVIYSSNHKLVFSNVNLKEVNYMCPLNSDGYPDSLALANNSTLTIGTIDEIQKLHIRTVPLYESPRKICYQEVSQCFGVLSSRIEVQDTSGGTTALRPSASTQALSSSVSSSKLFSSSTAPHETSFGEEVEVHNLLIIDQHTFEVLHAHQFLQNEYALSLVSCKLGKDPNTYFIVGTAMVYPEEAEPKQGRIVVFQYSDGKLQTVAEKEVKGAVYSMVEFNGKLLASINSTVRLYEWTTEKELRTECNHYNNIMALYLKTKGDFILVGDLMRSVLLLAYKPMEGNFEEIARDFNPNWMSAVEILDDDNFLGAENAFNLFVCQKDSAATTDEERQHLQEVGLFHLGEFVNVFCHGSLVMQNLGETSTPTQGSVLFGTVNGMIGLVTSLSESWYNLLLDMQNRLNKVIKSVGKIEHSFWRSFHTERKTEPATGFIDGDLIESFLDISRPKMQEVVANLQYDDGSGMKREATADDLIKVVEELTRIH
In words: CK1α NanoBit Assay (HiBiT-tagged CSNK1A1, HEK293 clonal lines). Format: cell-based. Conditions: HEK293 HiBiT-CSNK1A1/LgBiT cells, 24 h incubation. Here is the method: HEK293 clonal lines with CRISPR KI HiBiT tag on CSNK1A1 and stably expressing LgBiT protein were obtained from Promega (Madison, WI). […] Cells were incubated at 37° C., 5% CO2 for 24 hours and then signal was read on a Pherastar FSX using “LUM plus” optic module.
Data analysis was performed in Scinamic (Scinamic, Cambridge, MA). Luminescence response (R) was calculated by the formula: response=100*(S−N)/(P−N) where S is the signal of the well, N and P the mean negative and positive control values respectively of the same plate.
DC50 data are reported in Table 2 for compounds in Table 1. In Table 2 below, According to the code, A represents a DC50 value of ≤0.1 μM, B represents a DC50 value>0.1 μM and ≤1 μM, C represents an DC50 value>1 μM.
For orientation: HiBiT is a short tag that completes a luciferase, so light tracks the accessible tagged protein.
As for `Cc1ccnc(C2CCN(C(=O)Nc3ccc4c(c3)CN(C3CCC(=O)NC3=O)C4=O)CC2)n1` (stereo not shown) [Compound 246], the DC50 is more than 1 µM. Under `C[C@@H]1[C@H]2CN(C(=O)Nc3ccc4c(c3)CN(C3CCC(=O)NC3=O)C4=O)C[C@@H]12` (stereo partly shown) [Compound 273] stands less than 0.1 µM; under `N#Cc1ccc2c(c1)CN(C(=O)Nc1ccc3c(c1)CN(C1CCC(=O)NC1=O)C3=O)C2` (stereo not shown) [Compound 133], less than 0.1 µM; under `O=C1CCC(N2Cc3cc(NC(=O)N4CC(n5cccn5)Cc5ccccc54)ccc3C2=O)C(=O)N1` (stereo not shown) [Compound 161], 0.1 to 1 µM. For `O=C1CCC(N2Cc3cc(NC(=O)N4CCc5cccnc5C4)ccc3C2=O)C(=O)N1` (stereo not shown) [Compound 195], the DC50 is 0.1 to 1 µM. For `O=C1CCC(N2Cc3cc(NC(=O)N4C5CCCC4C5)ccc3C2=O)C(=O)N1` (stereo not shown) [Compound 218], the DC50 was less than 0.1 µM. Next, `CCC1c2ccccc2CN1C(=O)Nc1ccc2c(c1)CN(C1CCC(=O)NC1=O)C2=O` (stereo not shown) [Compound 208]: less than 0.1 µM; `O=C1CCC(N2Cc3cc(NC(=O)N4CCc5ncccc54)ccc3C2=O)C(=O)N1` (stereo not shown) [Compound 108, N-(2-(2,6-dioxopiperidin-3-yl)-1-oxoisoindolin-5-yl)-2,3-dihydro-1H-pyrrolo[3,2-b]pyridine-1-carboxamide]: 0.1 to 1 µM.

In turn, `CC1CCN(C(=O)Nc2ccc3c(c2)CN(C2CCC(=O)NC2=O)C3=O)CC1` (stereo not shown) [Compound 281] gave a DC50 of 0.1 to 1 µM.

Compound `O=C1CCC(N2Cc3cc(NC(=O)N4Cc5cccc(Cl)c5C4)ccc3C2=O)C(=O)N1` (stereo not shown) [Compound 182] had a DC50 of less than 0.1 µM.

On to `O=C1CCC(N2Cc3cc(NC(=O)N4CCN(c5ccncn5)CC4)ccc3C2=O)C(=O)N1` (stereo not shown) [Compound 266], for which the DC50 was more than 1 µM. Next, `COc1ccc2c(c1)CN(C(=O)Nc1ccc3c(c1)CN(C1CCC(=O)NC1=O)C3=O)C2` (stereo not shown) [Compound 199]: less than 0.1 µM; `O=C1CCC(N2Cc3cc(NC(=O)N4Cc5cccnc5C4)ccc3C2=O)C(=O)N1` (stereo not shown) [Compound 121]: 0.1 to 1 µM; `O=C1CCC(N2Cc3cc(NC(=O)N4CCCc5ccc(F)cc54)ccc3C2=O)C(=O)N1` (stereo not shown) [Compound 116]: less than 0.1 µM. Next, `CC1CN(C(=O)Nc2ccc3c(c2)CN(C2CCC(=O)NC2=O)C3=O)c2ccccc21` (stereo not shown) [Compound 119]: less than 0.1 µM. Under `CC1CCCN(C(=O)Nc2ccc3c(c2)CN(C2CCC(=O)NC2=O)C3=O)C1` (stereo not shown) [Compound 280] stands 0.1 to 1 µM; under `C[C@@H]1CCN(C(=O)Nc2ccc3c(c2)CN(C2CCC(=O)NC2=O)C3=O)[C@H](C)C1` (stereo partly shown) [Compound 275], more than 1 µM; under `O=C1CCC(N2Cc3cc(NC(=O)N4CCCc5ccccc54)ccc3C2=O)C(=O)N1` (stereo not shown) [Compound 107, N-(2-(2,6-dioxopiperidin-3-yl)-1-oxoisoindolin-5-yl)-3,4-dihydroquinoline-1(2H)-carboxamide], 0.1 to 1 µM. Compound `O=C1CCC(N2Cc3cc(NC(=O)N4CC(CC(F)F)(c5ccccc5)C4)ccc3C2=O)C(=O)N1` (stereo not shown) [Compound 237] displayed a DC50 of 0.1 to 1 µM. Next, `COc1cccc2c1CN(C(=O)Nc1ccc3c(c1)CN(C1CCC(=O)NC1=O)C3=O)C2` (stereo not shown) [Compound 134]: less than 0.1 µM; `CC1Cc2ccccc2N(C(=O)Nc2ccc3c(c2)CN(C2CCC(=O)NC2=O)C3=O)C1` (stereo not shown) [Compound 153]: less than 0.1 µM.

For the compound `CC1(c2ccccc2F)CN(C(=O)Nc2ccc3c(c2)CN(C2CCC(=O)NC2=O)C3=O)C1` (stereo not shown) [Compound 258], the DC50 fell in the range of 0.1 to 1 µM. Under `O=C1CCC(N2Cc3cc(NC(=O)N4CCCc5cccc(F)c54)ccc3C2=O)C(=O)N1` (stereo not shown) [Compound 157] stands 0.1 to 1 µM; under `O=C1CCC(N2Cc3cc(NC(=O)N4C[C@@H]5C[C@]5(C(F)F)C4)ccc3C2=O)C(=O)N1` (stereo partly shown) [Compound 240], 0.1 to 1 µM. Next, `O=C1CCC(N2Cc3cc(NC(=O)N4CCc5cccc(C(F)(F)F)c5C4)ccc3C2=O)C(=O)N1` (stereo not shown) [Compound 212]: less than 0.1 µM. Next, `O=C1CCC(N2Cc3cc(NC(=O)N4CCCc5c(F)cccc54)ccc3C2=O)C(=O)N1` (stereo not shown) [Compound 131]: 0.1 to 1 µM; `O=C1CCC(N2Cc3cc(NC(=O)N4CCC(c5nccs5)C4)ccc3C2=O)C(=O)N1` (stereo not shown) [Compound 247]: 0.1 to 1 µM. In the case of `CC1(C)Cc2ccccc2N(C(=O)Nc2ccc3c(c2)CN(C2CCC(=O)NC2=O)C3=O)C1` (stereo not shown) [Compound 165], the DC50 is less than 0.1 µM. Under `O=C1CCC(N2Cc3cc(NC(=O)N4CCc5ccc(-c6ccccc6)cc5C4)ccc3C2=O)C(=O)N1` (stereo not shown) [Compound 183] stands less than 0.1 µM; under `N#Cc1cccc2c1CN(C(=O)Nc1ccc3c(c1)CN(C1CCC(=O)NC1=O)C3=O)C2` (stereo not shown) [Compound 213], 0.1 to 1 µM. Regarding `Cc1cccc(N2CCN(C(=O)Nc3ccc4c(c3)CN(C3CCC(=O)NC3=O)C4=O)CC2)c1` (stereo not shown) [Compound 265], the DC50 was in the range of 0.1 to 1 µM. Under `O=C1CCC(N2Cc3cc(NC(=O)N4CC5[C@@H](CCN5c5ccccc5)C4)ccc3C2=O)C(=O)N1` (stereo partly shown) [Compound 236] stands 0.1 to 1 µM. Under `O=C1CCC(N2Cc3cc(NC(=O)N4CC(c5ccccc5F)C4)ccc3C2=O)C(=O)N1` (stereo not shown) [Compound 217] stands less than 0.1 µM; under `O=C1CCC(N2Cc3cc(NC(=O)N4c5cccc(C(F)(F)F)c5CC45COC5)ccc3C2=O)C(=O)N1` (stereo not shown) [Compound 296, N-(2-(2,6-dioxopiperidin-3-yl)-1-oxoisoindolin-5-yl)-4-(trifluoromethyl)spiro[indoline-2,3′-oxetane]-1-carboxamide], less than 0.1 µM. Under `O=C1CCC(N2Cc3cc(NC(=O)N4CCc5ccncc5C4)ccc3C2=O)C(=O)N1` (stereo not shown) [Compound 151] stands more than 1 µM. `Cc1ccc(C2CN(C(=O)Nc3ccc4c(c3)CN(C3CCC(=O)NC3=O)C4=O)C2)cc1` (stereo not shown) [Compound 228] returned a DC50 of less than 0.1 µM. `O=C1CCC(N2Cc3cc(NC(=O)N4CCCC(C5CCC5)C4)ccc3C2=O)C(=O)N1` (stereo not shown) [Compound 248]: the DC50 was less than 0.1 µM. `CC1(C)CCN(C(=O)Nc2ccc3c(c2)CN(C2CCC(=O)NC2=O)C3=O)c2ccccc21` (stereo not shown) [Compound 143] came in with a DC50 of less than 0.1 µM.

As to `C[C@H]1CCCN(C(=O)Nc2ccc3c(c2)CN(C2CCC(=O)NC2=O)C3=O)C1` (stereo partly shown) [Compound 279], the DC50 was in the range of 0.1 to 1 µM. Next, `Cn1cc(N2CCN(C(=O)Nc3ccc4c(c3)CN(C3CCC(=O)NC3=O)C4=O)CC2)cn1` (stereo not shown) [Compound 243]: more than 1 µM; `N#Cc1cccc2c1CCCN2C(=O)Nc1ccc2c(c1)CN(C1CCC(=O)NC1=O)C2=O` (stereo not shown) [Compound 126]: more than 1 µM. Next, `O=C1CCC(N2Cc3cc(NC(=O)N4CCCc5ccc(C(F)(F)F)cc54)ccc3C2=O)C(=O)N1` (stereo not shown) [Compound 114]: less than 0.1 µM.

`O=C1CC[C@@H](N2Cc3cc(NC(=O)N4c5ccccc5C[C@@H]4C(F)(F)F)ccc3C2=O)C(=O)N1` (single isomer, unassigned) [Compound 360] registered a DC50 of less than 0.1 µM. Next, `O=C1CCC(N2Cc3cc(NC(=O)N4CCCCC4C(F)(F)F)ccc3C2=O)C(=O)N1` (stereo not shown) [Compound 219]: less than 0.1 µM.

`CC(C)C1(c2ccccc2)CN(C(=O)Nc2ccc3c(c2)CN(C2CCC(=O)NC2=O)C3=O)C1` (stereo not shown) [Compound 233] displayed a DC50 of 0.1 to 1 µM. Take `O=C1CCC(N2Cc3cc(NC(=O)N4Cc5ccccc5C(C(F)(F)F)C4)ccc3C2=O)C(=O)N1` (stereo not shown) [Compound 196]: the DC50 is less than 0.1 µM. On to `O=C1CCC(N2Cc3cc(NC(=O)N4Cc5ccc(C(F)F)cc5C4)ccc3C2=O)C(=O)N1` (stereo not shown) [Compound 168], for which the DC50 was less than 0.1 µM.

`O=C1CCC(N2Cc3cc(NC(=O)N4CCCC(O)C4)ccc3C2=O)C(=O)N1` (stereo not shown) [Compound 262] came in with a DC50 of more than 1 µM. Under `O=C1CCC(N2Cc3cc(NC(=O)N4Cc5ccccc5C5(CC5)C4)ccc3C2=O)C(=O)N1` (stereo not shown) [Compound 136] stands less than 0.1 µM.

The compound `Cc1ccc(C2CCCN2C(=O)Nc2ccc3c(c2)CN(C2CCC(=O)NC2=O)C3=O)cn1` (stereo not shown) [Compound 224] yielded a DC50 of 0.1 to 1 µM. Next, `O=C1CCC(N2Cc3cc(NC(=O)N4CCc5ccccc5C4)ccc3C2=O)C(=O)N1` (stereo not shown) [Compound 104, N-(2-(2,6-dioxopiperidin-3-yl)-1-oxoisoindolin-5-yl)-3,4-dihydroisoquinoline-2(1H)-carboxamide]: less than 0.1 µM.

`O=C1CCC(N2Cc3cc(NC(=O)N4CCCc5ccc(C(F)F)cc54)ccc3C2=O)C(=O)N1` (stereo not shown) [Compound 129] gave a DC50 of less than 0.1 µM.

(Values after US20250171420A1 (Monte Rosa Therapeutics, Inc., priority 2022, published 2025).)
